The test system of one data set is A549. Description: Cytotoxicity against human A549 cells. It is filed as functional, cell-based.
Another data set relates to MCF7. Description: Cytotoxicity against human MCF7 cells. It is filed as functional, cell-based.
A further data set deals with IMR-90. Description: Cytotoxicity against human IMR90 cells. It is filed as cell-based.
The subject of another data set is Urinary bladder. Description: Drug uptake in mouse bladder after 5 mins. It counts as ADME, tissue-based. Particulars: in vivo.
A short description of data set [1]: Octanol-water partition coefficient, Log P of the compound at 12.6 uCi by Shake-flask method. It counts as physicochemical.
The nature of data set [2]: Drug uptake in TAA-induced cholangiocarcinoma model of rat tumor expressing GSTalpha assessed as cold spot using [18F]FDG at 486 uCi/0.23 mL, iv after 5 days by PET analysis. It is filed as ADME, organism-based, Neoplasm. Particulars: in vivo, 120 h.
Data set [3] deals with Liver. Description: Drug uptake in mouse liver after 5 mins. It counts as ADME, tissue-based. Particulars: in vivo.
Data set [4] concerns Liver. Description: Drug uptake in TAA-induced cholangiocarcinoma model of rat liver expressing GSTalpha assessed as heterogeneous distribution of [18F]FBuEA-GSH10 complex at 569 uCi/0.6 mL, iv after 120 mins by PET analysis. It counts as ADME, organism-based. Particulars: in vivo, 2 h.
Data set [5] relates to Liver. Description: Drug uptake in Sprague-Dawley rat liver expressing GSTalpha assessed as homogeneous distribution of [18F]FBuEA-GSH10 complex at 717 uCi/mL, iv after 120 mins by PET analysis. It counts as ADME, organism-based. The settings on record: in vivo, 2 h.
Data set [6] can be described thus: Drug uptake in 23 weeks TAA treated rat TAA-induced cholangiocarcinoma model tumor expressing GSTalpha assessed as cold spot using [18F]FDG at 801 uCi/0.23 mL, iv after 5 to 10 mins by PET analysis. It is filed as ADME, organism-based, Neoplasm. The settings on record: in vivo.
Another data set deals with Kidney. Description: Drug uptake in mouse kidney after 5 mins. It counts as ADME, tissue-based. Particulars: in vivo.
The nature of data set [7]: Drug uptake in 18 weeks TAA treated rat TAA-induced cholangiocarcinoma model tumor expressing GSTalpha assessed as hot spot using [18F]FDG at 486 uCi/0.23 mL, iv after 30 mins by PET analysis. It counts as ADME, organism-based, Neoplasm. Particulars: in vivo, 0.5 h.
Data set [8] can be described thus: Half life in rat plasma at 6.3 MBq, iv by HPLC analysis. It counts as ADME, organism-based.
Another data set relates to Nucleic Acid. Description: Ratio of drug level in tumor to liver in rat TAA-induced cholangiocarcinoma model. It is filed as ADME, tissue-based. Particulars: in vivo.

Consider `C=C(CC)C(=O)c1ccc(OCC(=O)NCCCC)c(Cl)c1Cl`, for which the results for the IC50 in the data set on A549 and in the data set on MCF7 were 13 µM and 4 µM, respectively.

For the compound `C=C(CC)C(=O)c1ccc(OCC(=O)NCCCCF)c(Cl)c1Cl`, the IC50 – broadly, the concentration that inhibits the measured activity by half – in the data set with IMR-90 was determined as 18 µM; with A549 it was 8 µM; in the data set on MCF7, 3 µM.

As to `C=C(CC)C(=O)c1ccc(OCC(=O)NCCCC[18F])c(Cl)c1Cl`, the Drug uptake result (with Urinary bladder; in data set [2]; with Liver [3]; with Liver [4]; in the data set with Liver [5]; in [6]) was “Active” throughout. The Drug uptake result (in the data set on Kidney; in [7]) was “Active” throughout. In addition, the logP (commonly a log measure of how a compound divides between an organic and an aqueous phase) in data set [1] was 1.47.

The compound `C=C(CC)C(=O)c1ccc(OCC(=O)O)c(Cl)c1Cl` [ETHACRYNIC ACID] had an IC50 in the data set on A549 of 84 µM. Besides, the half-life – broadly, the time needed for the level to fall by half in the phase considered – in data set [8] is 30 min.

On to `OC[C@H]1O[C@@H](O)[C@H]([18F])[C@@H](O)[C@@H]1O` [FLUDEOXYGLUCOSE-F18], for which, in the data set with Nucleic Acid, the Ratio is on record as 1.6.
